Experimental data as given in US9340590B2 (priority 2011, dated 2016).
pIC50: −log10 of the molar value. Where two headings read alike, the source gives them in different places. Positions of bridges follow the written chain, without caps; N, C: chain ends. Non-standard residues stand in square brackets, D forms with d. Residues, ends and D or L forms follow the SMILES beside them. Chg = N[C@H](C(=O)O)C1CCCCC1

Experiments:
Assay in all cases: cell-based
hNav1.7 = hNav1.7 (Homo sapiens, UniProt Q15858); assay type: cell-based; details: IonWorks Quattro, read-out: IWQ Use Nav1.7
hNav1.5 = hNav1.5 (Homo sapiens, UniProt Q14524); details: IonWorks Quattro, read-out: IWQ Use Nav1.5
hNav1.3 = hNav1.3 (Homo sapiens, UniProt Q9NY46); details: IonWorks Quattro, read-out: IWQ Use Nav1.3
[1] = use-dependent protocol, hNav1.7
[2] = use-dependent protocol, hNav1.5
[3] = use-dependent protocol, hNav1.3
[4] = clamped to −110 mV, depolarized to −10 mV, 5 min after compound, n=2

Sequence of hNav1.5 (Q14524 whole entry, looked up): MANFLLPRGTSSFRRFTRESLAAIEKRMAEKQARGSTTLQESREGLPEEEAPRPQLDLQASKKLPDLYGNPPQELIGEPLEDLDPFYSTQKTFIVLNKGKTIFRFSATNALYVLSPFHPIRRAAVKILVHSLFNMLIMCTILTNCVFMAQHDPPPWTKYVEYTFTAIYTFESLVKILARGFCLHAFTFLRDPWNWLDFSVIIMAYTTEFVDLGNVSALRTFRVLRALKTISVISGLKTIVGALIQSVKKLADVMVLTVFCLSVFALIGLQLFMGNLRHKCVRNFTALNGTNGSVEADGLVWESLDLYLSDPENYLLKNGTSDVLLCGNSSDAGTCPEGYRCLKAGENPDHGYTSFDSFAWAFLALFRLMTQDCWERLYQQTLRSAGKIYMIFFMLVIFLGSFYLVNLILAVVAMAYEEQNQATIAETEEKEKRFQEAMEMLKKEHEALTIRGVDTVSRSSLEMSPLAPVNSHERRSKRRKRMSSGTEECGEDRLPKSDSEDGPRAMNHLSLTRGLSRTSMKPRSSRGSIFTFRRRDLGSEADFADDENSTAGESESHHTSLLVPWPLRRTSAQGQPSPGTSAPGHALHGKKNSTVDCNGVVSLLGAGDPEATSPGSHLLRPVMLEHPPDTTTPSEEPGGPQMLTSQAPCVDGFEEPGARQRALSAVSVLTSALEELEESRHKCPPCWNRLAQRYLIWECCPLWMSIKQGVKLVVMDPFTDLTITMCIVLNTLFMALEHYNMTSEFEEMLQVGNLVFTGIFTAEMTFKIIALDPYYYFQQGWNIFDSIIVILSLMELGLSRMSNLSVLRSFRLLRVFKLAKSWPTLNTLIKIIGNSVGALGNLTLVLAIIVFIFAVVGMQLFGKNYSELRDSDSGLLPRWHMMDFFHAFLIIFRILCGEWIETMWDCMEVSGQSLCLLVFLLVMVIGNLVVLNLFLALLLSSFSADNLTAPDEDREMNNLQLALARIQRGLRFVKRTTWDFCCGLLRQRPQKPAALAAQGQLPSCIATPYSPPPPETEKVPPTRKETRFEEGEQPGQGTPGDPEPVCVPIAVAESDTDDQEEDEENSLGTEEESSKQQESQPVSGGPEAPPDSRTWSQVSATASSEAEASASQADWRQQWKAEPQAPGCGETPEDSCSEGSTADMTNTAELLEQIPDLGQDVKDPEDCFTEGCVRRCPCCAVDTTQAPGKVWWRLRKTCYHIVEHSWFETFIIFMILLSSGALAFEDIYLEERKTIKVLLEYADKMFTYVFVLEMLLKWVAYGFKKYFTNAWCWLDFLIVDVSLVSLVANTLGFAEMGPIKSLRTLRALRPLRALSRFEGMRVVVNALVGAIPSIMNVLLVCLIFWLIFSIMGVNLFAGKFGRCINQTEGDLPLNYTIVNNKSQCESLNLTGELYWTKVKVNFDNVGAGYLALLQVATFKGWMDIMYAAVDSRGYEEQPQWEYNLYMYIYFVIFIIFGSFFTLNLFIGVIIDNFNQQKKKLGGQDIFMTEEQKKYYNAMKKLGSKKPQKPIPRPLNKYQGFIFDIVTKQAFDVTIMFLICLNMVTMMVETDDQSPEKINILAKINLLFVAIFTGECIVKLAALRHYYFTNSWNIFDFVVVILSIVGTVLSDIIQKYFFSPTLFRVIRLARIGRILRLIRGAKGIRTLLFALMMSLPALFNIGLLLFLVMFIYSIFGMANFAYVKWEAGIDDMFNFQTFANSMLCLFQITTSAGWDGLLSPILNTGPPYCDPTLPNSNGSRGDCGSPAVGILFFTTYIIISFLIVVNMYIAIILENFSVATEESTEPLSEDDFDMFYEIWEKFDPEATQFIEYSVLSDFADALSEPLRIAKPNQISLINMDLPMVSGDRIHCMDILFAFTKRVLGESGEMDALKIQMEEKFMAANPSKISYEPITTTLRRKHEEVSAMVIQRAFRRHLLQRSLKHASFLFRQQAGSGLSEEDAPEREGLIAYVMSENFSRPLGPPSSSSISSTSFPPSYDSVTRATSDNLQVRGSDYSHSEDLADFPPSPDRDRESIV
Sequence of hNav1.7 (Q15858 whole entry, looked up): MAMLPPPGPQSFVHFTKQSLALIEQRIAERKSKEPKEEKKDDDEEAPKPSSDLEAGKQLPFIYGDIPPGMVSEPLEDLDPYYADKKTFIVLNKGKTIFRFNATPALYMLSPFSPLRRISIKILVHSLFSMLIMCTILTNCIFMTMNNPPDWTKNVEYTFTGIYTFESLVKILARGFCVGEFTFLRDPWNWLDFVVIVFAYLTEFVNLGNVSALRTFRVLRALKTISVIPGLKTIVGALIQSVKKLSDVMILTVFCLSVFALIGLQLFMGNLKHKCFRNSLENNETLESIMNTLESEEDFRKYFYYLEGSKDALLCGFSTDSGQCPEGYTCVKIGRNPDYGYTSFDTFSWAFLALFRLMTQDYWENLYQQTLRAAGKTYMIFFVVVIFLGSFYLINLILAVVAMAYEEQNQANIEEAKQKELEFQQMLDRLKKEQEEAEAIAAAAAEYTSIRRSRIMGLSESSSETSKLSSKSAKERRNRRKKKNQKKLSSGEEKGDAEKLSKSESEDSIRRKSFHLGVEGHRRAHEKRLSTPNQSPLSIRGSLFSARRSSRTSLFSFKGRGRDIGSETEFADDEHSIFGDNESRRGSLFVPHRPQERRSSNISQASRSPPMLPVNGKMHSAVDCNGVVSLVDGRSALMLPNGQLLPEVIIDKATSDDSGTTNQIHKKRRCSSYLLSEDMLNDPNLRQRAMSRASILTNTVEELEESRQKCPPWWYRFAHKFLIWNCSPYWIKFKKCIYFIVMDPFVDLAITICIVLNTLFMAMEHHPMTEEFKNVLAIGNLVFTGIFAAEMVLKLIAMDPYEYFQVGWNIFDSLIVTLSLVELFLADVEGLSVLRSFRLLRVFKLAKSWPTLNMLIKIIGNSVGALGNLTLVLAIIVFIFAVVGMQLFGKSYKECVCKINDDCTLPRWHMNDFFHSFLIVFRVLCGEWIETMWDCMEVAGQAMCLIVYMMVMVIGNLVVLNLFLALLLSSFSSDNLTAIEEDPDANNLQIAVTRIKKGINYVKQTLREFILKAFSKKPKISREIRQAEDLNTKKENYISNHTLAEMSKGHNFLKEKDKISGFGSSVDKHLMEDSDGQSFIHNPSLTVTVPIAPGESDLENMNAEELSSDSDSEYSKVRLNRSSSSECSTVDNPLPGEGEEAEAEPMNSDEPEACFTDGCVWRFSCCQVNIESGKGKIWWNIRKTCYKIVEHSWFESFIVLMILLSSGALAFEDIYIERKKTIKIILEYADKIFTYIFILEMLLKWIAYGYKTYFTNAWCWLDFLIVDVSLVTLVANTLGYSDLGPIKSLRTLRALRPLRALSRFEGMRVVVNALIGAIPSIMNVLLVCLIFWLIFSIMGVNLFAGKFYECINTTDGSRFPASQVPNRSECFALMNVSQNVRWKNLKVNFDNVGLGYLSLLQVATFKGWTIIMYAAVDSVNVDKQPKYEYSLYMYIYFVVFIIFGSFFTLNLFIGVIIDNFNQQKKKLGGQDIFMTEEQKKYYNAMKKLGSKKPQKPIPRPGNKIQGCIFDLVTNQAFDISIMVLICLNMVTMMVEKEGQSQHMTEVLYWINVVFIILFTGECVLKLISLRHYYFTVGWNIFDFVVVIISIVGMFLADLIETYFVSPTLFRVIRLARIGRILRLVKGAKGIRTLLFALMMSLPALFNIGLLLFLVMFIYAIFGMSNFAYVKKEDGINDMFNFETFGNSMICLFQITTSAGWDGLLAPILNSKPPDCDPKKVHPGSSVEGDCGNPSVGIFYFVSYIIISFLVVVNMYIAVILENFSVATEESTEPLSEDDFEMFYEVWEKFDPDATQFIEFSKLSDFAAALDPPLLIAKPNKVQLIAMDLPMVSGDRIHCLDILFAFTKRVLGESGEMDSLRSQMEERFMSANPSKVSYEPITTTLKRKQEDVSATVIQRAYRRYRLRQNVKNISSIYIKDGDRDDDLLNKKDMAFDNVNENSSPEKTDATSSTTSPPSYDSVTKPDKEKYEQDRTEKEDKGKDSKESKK

What does the source list for CC[C@H](C)[C@@H]1NC(=O)[C@@H]2CSSC[C@@H]3NC(=O)[C@H](C(C)C)NC(=O)[C@H](CC(C)C)NC(=O)[C@H](CC(N)=O)NC(=O)[C@@H]4CCCN4C(=O)[C@H](CCCNC(=N)N)NC(=O)[C@H](CSSC[C@H](NC(=O)[C@@H](N)CC(=O)O)C(=O)N[C@@H](CC(C)C)C(=O)NCC(=O)N[C@@H](CCSC)C(=O)N[C@@H](Cc4ccccc4)C(=O)N[C@@H](CCCNC(=N)N)C(=O)N[C@@H](CCCCN)C(=O)N2)NC(=O)[C@H](CSSC[C@@H](C(=O)N[C@@H](CCCCN)C(=O)N[C@@H](Cc2ccc(O)cc2)C(=O)N[C@H](C(=O)N[C@@H](Cc2ccccc2)C(N)=O)C(C)C)NC(=O)[C@H](Cc2c[nH]c4ccccc24)NC(=O)[C@H](CCCCN)NC(=O)[C@H](Cc2c[nH]cn2)NC(=O)[C@H]([C@@H](C)O)NC(=O)[C@H](CCCNC(=N)N)NC(=O)[C@H](CO)NC3=O)NC(=O)[C@H](CCCCN)NC(=O)[C@H](CC(=O)O)NC(=O)[C@H](CC(N)=O)NC(=O)[C@H](CC(=O)O)NC(=O)[C@@H]2CCCN2C1=O [compound 611] (H-DCLGMFRKCIPDNDKCCRPNLVCSRTHKWCKYVF-NH2; disulfide 2-17, 9-23, 16-30)?
pIC50 (hNav1.7; use-dependent block, hNav1.7): 7.37; pIC50 (hNav1.5; use-dependent block, hNav1.5): 4.88; pIC50 (hNav1.3; use-dependent block, hNav1.3): 6.96

CC[C@H](C)[C@@H]1NC(=O)[C@@H]2CSSC[C@@H]3NC(=O)[C@H](C(C)C)NC(=O)[C@H](CC(C)C)NC(=O)[C@H](CC(N)=O)NC(=O)[C@@H]4CCCN4C(=O)[C@H](CCCNC(=N)N)NC(=O)[C@H](CSSC[C@H](NC(=O)[C@@H](N)CC(=O)O)C(=O)N[C@@H](CC(C)C)C(=O)NCC(=O)N[C@@H](C4CCCCC4)C(=O)N[C@@H](Cc4ccccc4)C(=O)N[C@@H](CCCNC(=N)N)C(=O)N[C@@H](CCCCN)C(=O)N2)NC(=O)[C@H](CSSC[C@@H](C(=O)N[C@@H](CCCCN)C(=O)N[C@@H](Cc2ccc(O)cc2)C(=O)N[C@H](C(=O)N[C@@H](Cc2ccccc2)C(N)=O)C(C)C)NC(=O)[C@H](Cc2c[nH]c4ccccc24)NC(=O)[C@H](CCCCN)NC(=O)[C@H](Cc2c[nH]cn2)NC(=O)[C@H]([C@@H](C)O)NC(=O)[C@H](CCCNC(=N)N)NC(=O)[C@H](CO)NC3=O)NC(=O)[C@H](CCCCN)NC(=O)[C@H](CC(=O)O)NC(=O)[C@H](CC(N)=O)NC(=O)[C@H](CC(=O)O)NC(=O)[C@@H]2CCCN2C1=O [compound 616] (H-DCLG[Chg]FRKCIPDNDKCCRPNLVCSRTHKWCKYVF-NH2; disulfide 2-17, 9-23, 16-30) was tested. Which pIC50 (hNav1.7; [1]) did it give?
Its pIC50 is 7.64.

What about the pIC50 (hNav1.5; [2]) of the same molecule?
Its pIC50 is 5.16.

What about the pIC50 (hNav1.3; [3]) of the same molecule?
The pIC50 was 7.12.

What does the source list for CC[C@@H]1NC(=O)[C@H](Cc2ccccc2)NC(=O)CNC(=O)[C@H](CC(C)C)NC(=O)[C@@H](NC(=O)[C@@H](N)CC(=O)O)CSSC[C@@H]2NC(=O)[C@@H]3CSSC[C@@H](C(=O)N[C@@H](CCCCN)C(=O)N[C@@H](Cc4ccc(O)cc4)C(=O)N[C@H](C(=O)N[C@@H](Cc4ccccc4)C(N)=O)C(C)C)NC(=O)[C@H](Cc4c[nH]c5ccccc45)NC(=O)[C@H](CCCCN)NC(=O)[C@H](Cc4c[nH]cn4)NC(=O)[C@H]([C@@H](C)O)NC(=O)[C@H](CCCNC(=N)N)NC(=O)[C@H](CO)NC(=O)[C@H](CSSC[C@H](NC(=O)[C@H](CCCCN)NC(=O)[C@H](CCCNC(=N)N)NC1=O)C(=O)N[C@@H]([C@@H](C)CC)C(=O)N1CCC[C@H]1C(=O)N[C@@H](CC(=O)O)C(=O)N[C@@H](CC(N)=O)C(=O)N[C@@H](CC(=O)O)C(=O)N[C@@H](CCCCN)C(=O)N3)NC(=O)[C@H](C(C)C)NC(=O)[C@H](CC(C)C)NC(=O)[C@H](CC(N)=O)NC(=O)[C@@H]1CCCN1C(=O)[C@H](CCCNC(=N)N)NC2=O [SEQ ID NO: 124]?
pIC50 (hNav1.7; [4]): 6.96; pIC50 (hNav1.5; [4]): 4.98; pIC50 (hNav1.3; [4]): 7.00

What does the source list for CC[C@H](C)[C@@H]1NC(=O)[C@@H]2CSSC[C@@H]3NC(=O)[C@H](C(C)C)NC(=O)[C@H](CC(C)C)NC(=O)[C@H](CC(N)=O)NC(=O)[C@@H]4CCCN4C(=O)[C@H](CCCNC(=N)N)NC(=O)[C@H](CSSC[C@H](NC(=O)[C@@H](N)CC(=O)O)C(=O)N[C@@H](CC(C)C)C(=O)NCC(=O)N[C@@H](CC4CCCCC4)C(=O)N[C@@H](CC(C)C)C(=O)N[C@@H](CCCNC(=N)N)C(=O)N[C@@H](CCCCN)C(=O)N2)NC(=O)[C@H](CSSC[C@@H](C(=O)N[C@@H](CCCCN)C(=O)N[C@@H](Cc2ccc(O)cc2)C(=O)N[C@H](C(=O)N[C@@H](Cc2ccccc2)C(N)=O)C(C)C)NC(=O)[C@H](Cc2c[nH]c4ccccc24)NC(=O)[C@H](CCCCN)NC(=O)[C@H](Cc2c[nH]cn2)NC(=O)[C@H]([C@@H](C)O)NC(=O)[C@H](CCCNC(=N)N)NC(=O)[C@H](CO)NC3=O)NC(=O)[C@H](CCCCN)NC(=O)[C@H](CC(=O)O)NC(=O)[C@H](CC(N)=O)NC(=O)[C@H](CC(=O)O)NC(=O)[C@@H]2CCCN2C1=O [compound 681]?
pIC50 (hNav1.7; [1]): 7.64; pIC50 (hNav1.5; [2]): < 5.30; pIC50 (hNav1.3; [3]): 7.10

How did the pIC50 (hNav1.7; [4]) turn out when CC[C@H](C)[C@@H]1NC(=O)[C@@H]2CSSC[C@@H]3NC(=O)[C@H](C(C)C)NC(=O)[C@H](CC(C)C)NC(=O)[C@H](CC(N)=O)NC(=O)[C@@H]4CCCN4C(=O)[C@H](CCCNC(=N)N)NC(=O)[C@H](CSSC[C@H](NC(=O)[C@@H](N)CC(=O)O)C(=O)N[C@@H](CC(C)C)C(=O)NCC(=O)N[C@@H](Cc4ccccc4)C(=O)N(C)[C@@H](Cc4ccccc4)C(=O)N[C@@H](CCCNC(=N)N)C(=O)N[C@@H](CCCCN)C(=O)N2)NC(=O)[C@H](CSSC[C@@H](C(=O)N[C@@H](CCCCN)C(=O)N[C@@H](Cc2ccc(O)cc2)C(=O)N[C@H](C(=O)N[C@@H](Cc2ccccc2)C(N)=O)C(C)C)NC(=O)[C@H](Cc2c[nH]c4ccccc24)NC(=O)[C@H](CCCCN)NC(=O)[C@H](Cc2c[nH]cn2)NC(=O)[C@H]([C@@H](C)O)NC(=O)[C@H](CCCNC(=N)N)NC(=O)[C@H](CO)NC3=O)NC(=O)[C@H](CCCCN)NC(=O)[C@H](CC(=O)O)NC(=O)[C@H](CC(N)=O)NC(=O)[C@H](CC(=O)O)NC(=O)[C@@H]2CCCN2C1=O [SEQ ID NO: 290] was run?
Its pIC50 is 6.62.

And the pIC50 (hNav1.5; [4])?
The pIC50 was 4.98.

What about the pIC50 (hNav1.3; [4]) of the same molecule?
Its pIC50 is 6.85.

CC[C@H](C)[C@@H]1NC(=O)[C@@H]2CSSC[C@@H]3NC(=O)[C@H](C(C)C)NC(=O)[C@H](CC(C)C)NC(=O)CNC(=O)[C@@H]4CCCN4C(=O)[C@H](CCCNC(=N)N)NC(=O)[C@H](CSSC[C@H](NC(=O)[C@@H](N)CC(=O)O)C(=O)N[C@@H](CC(C)C)C(=O)NCC(=O)N[C@@H](Cc4ccccc4)C(=O)N[C@@H](CCSC)C(=O)N[C@@H](CCCNC(=N)N)C(=O)N[C@@H](CCCCN)C(=O)N2)NC(=O)[C@H](CSSC[C@@H](C(=O)N[C@@H](CCCCN)C(=O)N[C@@H](Cc2ccc(O)cc2)C(=O)N[C@H](C(=O)N[C@@H](Cc2ccccc2)C(N)=O)C(C)C)NC(=O)[C@H](Cc2c[nH]c4ccccc24)NC(=O)[C@H](CCCCN)NC(=O)[C@H](Cc2c[nH]cn2)NC(=O)[C@H]([C@@H](C)O)NC(=O)[C@H](CCCNC(=N)N)NC(=O)[C@H](CO)NC3=O)NC(=O)[C@H](CCCCN)NC(=O)[C@H](CC(=O)O)NC(=O)[C@H](CC(N)=O)NC(=O)[C@H](CC(=O)O)NC(=O)[C@@H]2CCCN2C1=O [compound 198] (H-DCLGFMRKCIPDNDKCCRPGLVCSRTHKWCKYVF-NH2; disulfide 2-17, 9-23, 16-30) was tested. Which pIC50 (hNav1.7; Use) did it give?
Its pIC50 is 6.64.

And the pIC50 (hNav1.5; Use)?
Its pIC50 is 5.01.

What about the pIC50 (hNav1.3; Use) of the same molecule?
The pIC50 was 6.90.

What does the source list for CC[C@H](C)[C@@H]1NC(=O)[C@@H]2CSSC[C@@H]3NC(=O)[C@H](C(C)C)NC(=O)[C@H](CC(C)C)NC(=O)[C@H](CC(N)=O)NC(=O)[C@@H]4CCCN4C(=O)[C@H](CCCNC(=N)N)NC(=O)[C@H](CSSC[C@H](NC(=O)[C@@H](N)CC(=O)O)C(=O)N[C@@H](CC(C)C)C(=O)NCC(=O)N[C@@H](Cc4ccccc4)C(=O)N[C@@H](CCSC)C(=O)N[C@@H](CCCNC(=N)N)C(=O)N[C@@H](CCCCN)C(=O)N2)NC(=O)[C@H](CSSC[C@@H](C(=O)N[C@@H](CCCCN)C(=O)N[C@@H](Cc2ccc(O)cc2)C(=O)N[C@H](C(=O)N[C@@H](Cc2ccccc2)C(N)=O)C(C)C)NC(=O)[C@H](Cc2c[nH]c4ccccc24)NC(=O)[C@H](CCCCN)NC(=O)[C@H](Cc2c[nH]cn2)NC(=O)[C@H](Cc2ccc(O)cc2)NC(=O)[C@H](CCCNC(=N)N)NC(=O)[C@H](CO)NC3=O)NC(=O)[C@H](CCCCN)NC(=O)[C@H](CC(=O)O)NC(=O)[C@H](CC(N)=O)NC(=O)[C@H](CC(=O)O)NC(=O)[C@@H]2CCCN2C1=O [compound 340] (H-DCLGFMRKCIPDNDKCCRPNLVCSRYHKWCKYVF-NH2; disulfide 2-17, 9-23, 16-30)?
pIC50 (hNav1.7; Table 22, use, […]): 7.10; pIC50 (hNav1.5; Table 22, use, […]): 5.26; pIC50 (hNav1.3; Table 22, use, […]): 7.22
